These are literature values, as cited in patent US20240398838A1 (priority 2023, published 2024).

Square brackets hold non-standard residues; d marks the D form. Peptide text beside a SMILES is read from it. Cit = NC(=O)NCCC[C@H](N)C(=O)O

The conditions of data set [1]: compared to α-tocopherol = 1.0.
For data set [2] the following is noted: even when dietary intake occurs in equal portions.
For data set [3] the following is noted: in vivo.
Data set [4] relates to leukemia cells of two cultured leukemia cell lines. The settings on record: in vitro.
For data set [5] the following is noted: compared to placebo.
For data set [6] the following is noted: topical, within four weeks of treatment.
Another data set has as its target CB2 receptor (Homo sapiens, UniProt P34972).
The conditions of data set [7]: arthritic subjects.
For data set [8] the following is noted: mice with colitis.
The conditions of data set [9]: patients who did not respond to traditional antidepressant medications.
For data set [10] the following is noted: individuals with metabolic syndrome.
Test in data set [11]: not given
The source holds these as a separate data set.

Data set [12] concerns herpes simplex virus type 1.
The conditions of data set [13]: in vivo. This is another data set of the same source.
The test system of another data set is ticks and mosquitoes. The settings on record: compared with DEET.
The test system of data set [14] is wide dynamic range neurons in the ventroposterolateral nucleus of the thalamus. To be noted: in vivo.
For data set [15] the following is noted: topical, concentrations 0.5-5%.

Sequence of CB2 receptor (P34972 whole entry): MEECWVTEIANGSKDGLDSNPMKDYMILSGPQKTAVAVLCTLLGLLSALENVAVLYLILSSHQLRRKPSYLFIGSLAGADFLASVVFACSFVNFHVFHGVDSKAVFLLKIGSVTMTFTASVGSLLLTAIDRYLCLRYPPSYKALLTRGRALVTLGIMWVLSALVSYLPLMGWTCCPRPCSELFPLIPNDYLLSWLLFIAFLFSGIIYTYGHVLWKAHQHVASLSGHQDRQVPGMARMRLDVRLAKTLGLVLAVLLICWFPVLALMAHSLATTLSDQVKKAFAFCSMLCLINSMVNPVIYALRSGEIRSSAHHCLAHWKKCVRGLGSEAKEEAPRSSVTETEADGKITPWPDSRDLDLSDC

For `Cc1c(O)cc2c(c1C)O[C@](C)(CCC[C@H](C)CCC[C@H](C)CCCC(C)C)CC2` [γ-tocopherol], the relative biological activity in [1] is on record as 0.1. Besides, the “concentration in vivo relative to α-tocopherol” value in data set [2] is given as “roughly 10%”.
As to `CC(C)=CCC[C@](C)(O)[C@@H]1CC=C(C)CC1` [A-bisabolol, α-bisabolol], the antifungal activity result in the data set with candida species is given as “potent inhibitor”.
For “HGH: hormone comprising a peptide chain that is synthesized in the pituitary gland”, the biological half-life in data set [3] was 10-20 minutes.
For the compound `CC12CCC(CC1)C(C)(C)O2` [eucalyptol, 1,8-epoxy-p-menthane], the “killing of leukemia cells” value in data set [4] is listed as “able to kill”.
In the case of `C/C=C1\[C@H]2C=C(C)C[C@]1(N)c1ccc(=O)[nH]c1C2` [Huperzine A], the “memory recall and cognitive function” value in [5] is given as “significant improvements”.
For the compound `C/C(=C\CO)CCC[C@H](C)CCC[C@H](C)CCCC(C)C` [Phytol], the solubility entry is “nearly insoluble in water, but soluble in most organic solvents”.
Regarding `CC[C@H](C)[C@H](NC(=O)[C@H](CC(=O)O)NC(=O)[C@@H](N)CCCCN)C(=O)N[C@@H](CCCNC(N)=O)C(N)=O` [Tripeptide-10 citrulline] (H-KDI[Cit]-NH2), the improve suppleness in [6] is given as ≤ 54%.
Regarding `CC1=CCC(=C(C)C)CC1` [Terpinolene], in the data set on AKT1 gene, the “expression of the AKT1 gene” value is “markedly reduces”.
`C=C1CC/C=C(\C)CC[C@@H]2[C@@H]1CC2(C)C` [β-caryophyllene]: on CB2 receptor, the “activity at CB2 receptor” value is “functional CB2 agonist”. Further, the “swelling of joints and lymph nodes” value in data set [7] is “reduced swelling of joints and lymph nodes”.
With `C=C(C)[C@@H]1CCC(C)=C[C@H]1c1c(O)cc(CCCCC)cc1O` [CBD, cannabidiol], the “modulation of the gut microbiome” value in data set [8] is given as “ability to modulate the gut microbiome”.
Consider `CN1c2c([nH]c(N)nc2=O)NCC1CNc1ccc(C(=O)N[C@@H](CCC(=O)O)C(=O)O)cc1` (some centres unmarked) [5-MTHF, 5-methyltetrahydrofolate], for which the symptoms of depression entry in [9] is recorded as “improved symptoms of depression”.
With `Cc1cc(O)cc2c1O[C@](C)(CCC[C@H](C)CCC[C@H](C)CCCC(C)C)CC2` [δ-tocopherol], the relative biological activity in data set [1] was 0.03. Moreover, the “markers of inflammation in the blood” value in data set [10] is given as “reduced markers of inflammation”.
Take `Cc1c(C)c2c(c(C)c1O)CC[C@@](C)(CCC[C@H](C)CCC[C@H](C)CCCC(C)C)O2` [α-tocopherol]: in data set [11] (1600-3200 IU/day), the “blood plasma concentration of F2-isoprostane” value was “significantly lower”. Further, in [11] (doses up to 400 IU/day), the “reducing the risk of coronary disease” value is recorded as “up to 34%”. In addition, in data set [11] (doses up to 400 IU/day, controlled trials), the “reduce the risk of developing neurodegenerative diseases such as Alzheimer's Syndrome or dementia” value was ≤ 24%.
Regarding `CC1(C)[C@@H]2CC[C@@]1(C)[C@@H](O)C2` [Isoborneol], the “inhibition of herpes simplex virus type 1” value in data set [12] was “potent inhibitor”.
Turning to `CCNC(=O)CC[C@H](N)C(=O)O` [Theanine], in data set [13], the “dose considered safe and well-tolerated” value is “up to 400 mg per day”.
As to `C=C(C)[C@@H]1CCC2=CCC[C@@H](C)[C@]2(C)C1` [Valencene], in the data set with ticks and mosquitoes, the “toxicity to ticks and mosquitoes” value was “toxic to ticks and mosquitoes at lesser concentrations than DEET”.
Turning to `CCCCCc1cc(O)c2c(c1)OC(C)(C)C1CCC(C)=CC21` (centres unmarked) [THC, Δ-9-tetrahydrocannabinol], the “modulation of the gut microbiome” value in data set [8] is reported as “ability to modulate the gut microbiome”. Also, the “power in mediating pain relative to morphine” value in data set [14] is “ten times more powerful than morphine”.
On to `Cc1ccc(C(C)C)cc1` [p-cymene, 1-isopropyl-4-methylbenzene], for which, in the data set with candida species, the antifungal activity result is reported as “strong antifungal activity”.
For the compound `Cc1cc(O)c(C)c2c1O[C@](C)(CCC[C@H](C)CCC[C@H](C)CCCC(C)C)CC2` [β-tocopherol], the relative biological activity in data set [1] is given as 0.5.
On to `C=CCCCCCCCCC(=O)N[C@@H](Cc1ccccc1)C(=O)O` [UP, Undecylenoyl phenylalanine], for which the “time of treatment to skin lightening effects” value in data set [15] is listed as ≥ 7 days.
